PubChem BioAssay AID720727 (Broad Institute, 2013)
Active and inactive are the calls of the source.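 The calls were made as follows: active = compound whose rising-signal curve crosses activity 40 at or below its top valid dose; inconclusive = flat curve holding activity 30 to 70, or poor fit; inactive = the rest.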

test system: Huh7 miR-21 level, qRT-PCR, 48 h; experiment: effect on endogenous miR-21 levels, dose response, selectivity assay for miR-122 activator project, cell-based, Huh7, qRT-PCR, dry powder (AID 720727)

SMILES | AC40
C[C@H]1CN([C@@H](C)CO)C(=O)c2cc(-c3ccc(C#N)cc3)cnc2O[C@H]1CN(C)C(=O)c1ccccc1 | 30.6 µM
COc1ccc(S(=O)(=O)N(C)C[C@@H]2Oc3ncc(/C=C/c4ccccc4)cc3C(=O)N([C@@H](C)CO)C[C@@H]2C)cc1 | 14.9 µM
CNC[C@@H]1Oc2cc(C#CC3CCCCC3)ccc2S(=O)(=O)N([C@@H](C)CO)C[C@@H]1C | 29.2 µM
CN(C)CCCOc1nn(Cc2ccccc2)c2ccccc12 | 11.4 µM
Cc1cccc(NC(=O)Nc2ccc3c(c2)C(=O)N(C)[C@@H]2CC[C@H](CC(=O)NCc4ccccc4Cl)O[C@H]2CO3)c1 | 17.9 µM
CCn1cc(C(=O)O)c(=O)c2cc(F)c(N3CCNCC3)nc21 | > 35 µM (inactive)
COCC(=O)N(C)C[C@@H]1Oc2ncc(-c3ccc(C#N)cc3)cc2C(=O)N([C@@H](C)CO)C[C@@H]1C | 18.4 µM
CCOC(=O)N1CCC(NC(=O)c2ccc3c(c2)sc2nc(-c4ccccc4)cn23)CC1 | 17.5 µM
O=C(CN=C1NS(=O)(=O)c2ccccc21)Nc1ccccc1N1CCCCCC1 | 28.4 µM
CN1C(=O)c2cc(NC(=O)c3cccc(F)c3)ccc2OC[C@H]2O[C@@H](CC(=O)O)CC[C@H]21 | 11.7 µM
COCC(=O)N(C)C[C@H]1Oc2cc(C#Cc3cccnc3)ccc2S(=O)(=O)N([C@H](C)CO)C[C@H]1C | 4.22 µM
Cc1cc(C(C)(C)C)cc(S(=O)(=O)NCCc2ccncc2)c1C | 33.5 µM
CN(CC(=O)Nc1cccc(Cl)c1)S(=O)(=O)c1ccc2c(c1)n(C)c(=O)c(=O)n2C | 29.8 µM
COCC(=O)N(C)C[C@H]1Oc2cc(-c3ccccc3F)ccc2S(=O)(=O)N([C@H](C)CO)C[C@H]1C | 18.8 µM
CN1C(=O)c2cc(NC(=O)c3cccc(F)c3)ccc2OC[C@H]2O[C@@H](CC(=O)O)CC[C@@H]21 | 32.5 µM
